Experimental data as given in patent US8637525B2, “Compounds for the reduction of beta-amyloid production” (Bristol-Myers Squibb Company, priority 2009, dated 2014).
Structures can show the parent of a compound that is named as a salt. Where two headings read alike, the source gives them in different places.

System: Aβ1-42 production
Experiment: Cellular assay for inhibition of Aβ1-42 production (H4 APP751 SWE clone 8.20)
Format: cell-based
Details: H4 APP751 SWE clone 8.20 cells, 19 h incubation
How it was run: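 Inhibition values are IC50s fitted to Viewlux counts after a 19 h compound exposure at 37 °C. Aβ42 was captured by the neoepitope-specific antibody 565 (0.8 ng/well) paired with N-terminal 26D6 (75 ng/well), incubated overnight at 4 °C in pH 7.4 Tris-HCl buffer containing 0.2% BSA.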

[1] = class symbols, read-out: Activity Rating (Aβ42 cellular IC50)
[2] = 19 h, read-out: Activity Rating (Aβ42 cellular IC50), numeric value
[3] = 19 h, class symbols, read-out: Activity Rating (Aβ42 cellular IC50)

IC50 [3] [nM] | SMILES | other results
– | COc1cc(Nc2nc3c(c(N4CC(F)(F)C4)n2)COCC3c2ccc(F)c(F)c2)ccc1-n1cnc(Cl)c1 (stereo not drawn) [Example 114B, N-(4-(4-chloro-1H-imidazol-1-yl)-3-methoxyphenyl)-4-(3,3-difluoroazetidin-1-yl)-8-(3,4-difluorophenyl)-7,8-dihydro-5H-pyrano[4,3-d]pyrimidin-2-amine] | IC50 [1]: 100 to 1000 nM
– | CNc1nc(Nc2ccc(-n3cnc(Cl)c3)c(OC)c2)nc2c1CCCC2c1ccccc1 (stereo not drawn) [Example 203, N2-(4-(4-chloro-1H-imidazol-1-yl)-3-methoxyphenyl)-N4-methyl-8-phenyl-5,6,7,8-tetrahydroquinazoline-2,4-diamine] | IC50 [2]: 19 nM
– | COc1cc(Nc2nc3c(c(N(C)C)n2)CCCC3c2ccc(F)cc2)ccc1-n1cnc(Cl)c1 (single isomer, unassigned) [Example 127A, N^2-(4-(4-chloro-1H-imidazol-1-yl)-3-methoxyphenyl)-8-(4-fluorophenyl)-N^4,N^4-dimethyl-5,6,7,8-tetrahydroquinazoline-2,4-diamine] | IC50 [1]: 1.5 to 9.9 nM
> 1000 | CNc1nc(Nc2ccc3occc3c2)nc2c1CCC2c1ccccc1 (stereo not drawn) [Example 250, N2-(benzofuran-5-yl)-N4-methyl-7-phenyl-6,7-dihydro-5H-cyclopenta[d]pyrimidine-2,4-diamine] | –
10 to 100 | COc1cc(Nc2nc3c(c(N(C)C)n2)C[C@H](O)[C@H]3c2ccccc2)ccc1-n1cnc(Cl)c1 [Example 180, (6S,7S)-2-(4-(4-chloro-1H-imidazol-1-yl)-3-methoxyphenylamino)-4-(dimethylamino)-7-phenyl-6,7-dihydro-5H-cyclopenta[d]pyrimidin-6-ol] | –
– | COc1cc(Nc2nc(N[C@@H](C)C3CC3)c3c(n2)C(c2ccc(F)cc2)CC3)ccc1-n1cnc(Cl)c1 (single isomer, unassigned) [Example 50A] | IC50 [1]: 1.5 to 9.9 nM
1.5 to 9.9 | CNc1nc(Nc2ccc(-n3cnc(Cl)c3)c(OC)c2)nc2c1COCC2c1ccc(F)cc1 (racemic) [Example 60, N2-(4-(4-chloro-1H-imidazol-1-yl)-3-methoxyphenyl)-8-(4-fluorophenyl)-N4-methyl-7,8-dihydro-5H-pyrano[4,3-d]pyrimidine-2,4-diamine] | –
10 to 100 | COc1cc(Nc2nc3c(c(N(C)C)n2)CCC3c2ccc(Cl)cc2)ccc1-n1cnc(Cl)c1 (stereo not drawn) [Example 92, N^2-(4-(4-Chloro-1H-imidazol-1-yl)-3-methoxyphenyl)-7-(4-chlorophenyl)-N^4,N^4-dimethyl-6,7-dihydro-5H-cyclopenta[d]pyrimidine-2,4-diamine] | –
1.5 to 9.9 | COc1cc(Nc2nc3c(c(N4CC[C@H](F)C4)n2)CCC3c2ccc(F)cc2)ccc1-n1cnc(Cl)c1 (single isomer, unassigned) [Example 37] | –
100 to 1000 | COc1cc(Nc2nc3c(c(N4CCNCC4)n2)CCC3c2ccc(F)cc2)ccc1-n1cnc(Cl)c1 (stereo not drawn) [Example 31, N-(4-(4-chloro-1H-imidazol-1-yl)-3-methoxyphenyl)-7-(4-fluorophenyl)-4-(piperazin-1-yl)-6,7-dihydro-5H-cyclopenta[d]pyrimidin-2-amine] | –
> 1000 | CNc1nc(Nc2ccc(-c3cc(Cl)ncn3)c(OC)c2)nc2c1CCC2c1ccccc1 (stereo not drawn) [Example 277, N2-(4-(6-chloropyrimidin-4-yl)-3-methoxyphenyl)-N4-methyl-7-phenyl-6,7-dihydro-5H-cyclopenta[d]pyrimidine-2,4-diamine] | –
– | COc1cc(Nc2nc3c(c(N4CCC(=O)C4)n2)CCC3c2ccccc2)ccc1-n1cnc(Cl)c1 (stereo not drawn) [Example 206, 1-(2-(4-(4-chloro-1H-imidazol-1-yl)-3-methoxyphenylamino)-7-phenyl-6,7-dihydro-5H-cyclopenta[d]pyrimidin-4-yl)pyrrolidin-3-one] | IC50 [2]: 15 nM
100 to 1000 | CNc1nc(Nc2ccc(S(C)(=O)=O)cc2)nc2c1CCC2c1ccccc1 (stereo not drawn) [Example 235, N4-methyl-N2-(4-(methylsulfonyl)phenyl)-7-phenyl-6,7-dihydro-5H-cyclopenta[d]pyrimidine-2,4-diamine] | –
10 to 100 | CCN(C)c1nc(Nc2ccc(-n3cnc(Cl)c3)c(OC)c2)nc2c1CCCC2c1ccccc1 (racemic) [Example 124, N^2-(4-(4-Chloro-1H-imidazol-1-yl)-3-methoxyphenyl)-N^4-ethyl-N^4-methyl-8-phenyl-5,6,7,8-tetrahydroquinazoline-2,4-diamine] | –
10 to 100 | CCNc1nc(Nc2ccc(-n3cnc(Cl)c3)c(OC)c2)nc2c1CN(C)CC2c1ccc(F)cc1 (stereo not drawn) [Example 164A, N2-(4-(4-chloro-1H-imidazol-1-yl)-3-methoxyphenyl)-N4-ethyl-8-(4-fluorophenyl)-6-methyl-5,6,7,8-tetrahydropyrido[4,3-d]pyrimidine-2,4-diamine] | –
> 1000 | CNc1nc(Nc2cccc(C#N)c2)nc2c1CCC2c1ccccc1 (stereo not drawn) [Example 233, 3-(4-(methylamino)-7-phenyl-6,7-dihydro-5H-cyclopenta[d]pyrimidin-2-ylamino)benzonitrile] | –
10 to 100 | COc1cc(Nc2nc3c(c(N4CC[C@H](F)C4)n2)COC3c2ccc(F)cc2)ccc1-n1cnc(Cl)c1 (single isomer, unassigned) [Example 76] | –
10 to 100 | COc1cc(Nc2nc3c(c(N4CCC5(C4)OCCO5)n2)CCC3c2ccccc2)ccc1-n1cnc(Cl)c1 (stereo not drawn) [Example 205, N-(4-(4-chloro-1H-imidazol-1-yl)-3-methoxyphenyl)-7-phenyl-4-(1,4-dioxa-7-azaspiro[4.4]nonan-7-yl)-6,7-dihydro-5H-cyclopenta[d]pyrimidin-2-amine] | –
– | CNc1nc(Nc2ccc(Cl)c(OC)c2)nc2c1CCC2c1ccccc1 (stereo not drawn) [Example 220, N2-(4-chloro-3-methoxyphenyl)-N4-methyl-7-phenyl-6,7-dihydro-5H-cyclopenta[d]pyrimidine-2,4-diamine] | IC50 [2]: 550 nM
10 to 100 | COc1cc(Nc2nc3c(c(N4CCC4)n2)CCC3c2ccc(OC(F)(F)F)cc2)ccc1-n1cnc(Cl)c1 (racemic) [Example 101, 4-(Azetidin-1-yl)-N-(4-(4-chloro-1H-imidazol-1-yl)-3-methoxyphenyl)-7-(4-(trifluoromethoxy)phenyl)-6,7-dihydro-5H-cyclopenta[d]pyrimidin-2-amine] | –
– | [2H]C([2H])([2H])Nc1nc(Nc2ccc(-n3cnc(Cl)c3)c(OC)c2)nc2c1CCC2c1ccccc1 (single isomer, unassigned) [Example 176B, N^2-(4-(4-Chloro-1H-imidazol-1-yl)-3-methoxyphenyl)-N^4-trideuteromethyl-7-phenyl-6,7-dihydro-5H-cyclopenta[d]pyrimidine-2,4-diamine] | IC50 [1]: 1.5 to 9.9 nM
1.5 to 9.9 | CNc1nc(Nc2ccc(-n3ncnc3C)c(F)c2)nc2c1CCC2c1ccc(F)cc1 (stereo not drawn) [Example 12, N^2-(3-Fluoro-4-(5-methyl-1H-1,2,4-triazol-1-yl)phenyl)-7-(4-fluorophenyl)-N^4-methyl-6,7-dihydro-5H-cyclopenta[d]pyrimidine-2,4-diamine] | –
10 to 100 | CCN1Cc2c(nc(Nc3ccc(-n4cnc(Cl)c4)c(OC)c3)nc2N(C)CC)C(c2ccc(F)cc2)C1 (stereo not drawn) [Example 158, N2-(4-(4-chloro-1H-imidazol-1-yl)-3-methoxyphenyl)-N4,6-diethyl-8-(4-fluorophenyl)-N4-methyl-5,6,7,8-tetrahydropyrido[4,3-d]pyrimidine-2,4-diamine] | –
1.5 to 9.9 | CC[C@H](COC)Nc1nc(Nc2ccc(-n3cnc(Cl)c3)c(OC)c2)nc2c1CCC2c1ccc(F)cc1 (single isomer, unassigned) [Example 48A] | –
– | CNc1nc(Nc2ccc(C#N)cc2)nc2c1CCC2c1ccccc1 (stereo not drawn) [Example 227, 4-(4-(methylamino)-7-phenyl-6,7-dihydro-5H-cyclopenta[d]pyrimidin-2-ylamino)benzonitrile] | IC50 (read-out: Activity Rating (Aβ42 cellular IC50), numeric value): 12 nM
10 to 100 | CCNc1nc(Nc2ccc(-n3ncnc3C)c(F)c2)nc2c1COCC2c1ccc(C(F)(F)F)cc1 (racemic) [Example 119, N4-ethyl-N2-(3-fluoro-4-(5-methyl-1H-1,2,4-triazol-1-yl)phenyl)-8-(4-(trifluoromethyl)phenyl)-7,8-dihydro-5H-pyrano[4,3-d]pyrimidine-2,4-diamine, TFA] | –
– | CCC1CCCN1c1nc(Nc2ccc(-n3cnc(Cl)c3)c(OC)c2)nc2c1CCC2c1ccc(F)cc1 (single isomer, unassigned) [Example 24, N-(4-(4-chloro-1H-imidazol-1-yl)-3-methoxyphenyl)-4-(2-ethylpyrrolidin-1-yl)-7-(4-fluorophenyl)-6,7-dihydro-5H-cyclopenta[d]pyrimidin-2-amine] | IC50 [1]: 10 to 100 nM
10 to 100 | COc1cc(Nc2nc3c(c(N4CC(C)(OC)C4)n2)CCC3c2ccc(F)cc2)ccc1-n1cnc(Cl)c1 (stereo not drawn) [Example 191, N-(4-(4-chloro-1H-imidazol-1-yl)-3-methoxyphenyl)-7-(4-fluorophenyl)-4-(3-methoxy-3-methylazetidin-1-yl)-6,7-dihydro-5H-cyclopenta[d]pyrimidin-2-amine] | –
1.5 to 9.9 | CCNc1nc(Nc2ccc(-n3cnc(Cl)c3)c(OC)c2)nc2c1CN(S(C)(=O)=O)CC2c1ccc(F)cc1 (stereo not drawn) [Example 155A, N2-(4-(4-chloro-1H-imidazol-1-yl)-3-methoxyphenyl)-N4-ethyl-8-(4-fluorophenyl)-6-(methylsulfonyl)-5,6,7,8-tetrahydropyrido[4,3-d]pyrimidine-2,4-diamine] | –
– | CNc1nc(Nc2ccc(-n3cnc(Cl)c3)c(OC)c2)nc2c1COCC2c1ccccc1 (single isomer, unassigned) [Example 51B, N^2-(4-(4-chloro-1H-imidazol-1-yl)-3-methoxyphenyl)-N^4-methyl-8-phenyl-7,8-dihydro-5H-pyrano[4,3-d]pyrimidine-2,4-diamine] | IC50 [1]: 1.5 to 9.9 nM
